In ChEMBL document CHEMBL1146435, “Anserinones A and B: new antifungal and antibacterial benzoquinones from the coprophilous fungus Podospora anserina” (1997):
Activity calls are given as the source filed them. No cut-off for these calls is given here.

Key:
Sordaria fimicola = assay: Antimicrobial activity against Sordaria fimicola assessed as reduction in radial growth rate at 200 ug/disk by inoculation disk assay; assay type: functional; parameters: scale not given: the % may be the effect or the level left
Ascobolus = assay: Antimicrobial activity against Ascobolus furfuraceus assessed as reduction in radial growth rate at 200 ug/disk by inoculation disk assay; assay type: functional; parameters: scale not given: the % may be the effect or the level left
Bacillus subtilis = assay: Antimicrobial activity against Bacillus subtilis ATCC 6051 at 200 ug/disk; assay type: functional; settings: read-out: IZ
Staphylococcus aureus = assay: Antimicrobial activity against Staphylococcus aureus ATCC 29213 at 200 ug/disk; assay type: functional; settings: read-out: IZ
Candida albicans = assay: Antimicrobial activity against Candida albicans ATCC 90029 at 200 ug/disk; assay type: functional, organism-based
[1] = Cytotoxicity against human NCI60 cells; assay type: functional

## COC1=CC(=O)C(C)=C(CC(C)=O)C1=O [ANSERINONE A]
Sordaria fimicola
  Activity: 60%
Ascobolus
  Activity: 100%
Bacillus subtilis
  zone of inhibition at 200 µg/disc: 40 mm
Staphylococcus aureus
  zone of inhibition at 200 µg/disc: 40 mm
Candida albicans
  Activity: inactive
[1]
  GI50: 9.1 µM

## COC1=CC(=O)C(C)=C(C[C@H](C)O)C1=O [ANSERINONE B]
Sordaria fimicola
  Activity: 50%
Ascobolus
  Activity: 37%
Bacillus subtilis
  zone of inhibition at 200 µg/disc: 40 mm
Staphylococcus aureus
  zone of inhibition at 200 µg/disc: 40 mm
Candida albicans
  Activity: inactive
[1]
  GI50: 21 µM
